{"source": "patent US20040024293A1", "about": "“Methods and systems for analyzing complex biological systems” (priority 2001, published 2004)", "key": {"[1]": {"tested_on": "Saccharomyces cerevisiae wild type strain BY4743", "experiment": "Metabolite analysis (GC-MS, LC-MS) of yeast cells treated with antifungal drugs (AF1)", "type": "cell-based", "conditions": "for Fold Change of NacetylDglucosamine: metabolite NacetylDglucosamine; for Fold Change of phosphoenolpyruvate: metabolite phosphoenolpyruvate; for Fold Change of thymine: metabolite thymine; for Fold Change of urocanic acid: metabolite urocanic acid; for Fold Change of zeatin: metabolite zeatin"}, "[2]": {"tested_on": "Saccharomyces cerevisiae wild type strain BY4743", "experiment": "Combined gene expression and metabolite data mapped to KEGG reactions and pathways (AF1)", "type": "cell-based", "conditions": "yeast", "text": "In AF1, two different technologies were utilized: gene expression analysis (for examination of mRNA expression) and metabolite analysis. […] As noted previously, existing metabolic databases may be helpful in practicing the methods and systems of the present invention, but many databases include limitations that make their use in data analysis and pathway mapping less than straightforward. […] This caveat to KEGG makes it difficult to pinpoint the correct pathway when attempting to link a gene to a specific pathway. […] The pathway score indicates how meaningful the mapping is, or how likely it is to be correctly indicative of the pathway involved in the perturbation under examination. The method provides a pathway score based on perturbation levels of genes. and/or compounds and the information content of each gene and/or compound in the pathway, i.e., a pathway score indicates the extent to which other pathways are mapped to a gene/compound. For example, imagine that two genes are perturbed in a particular experiment. One gene maps to only one pathway, giving a high degree of probability that the perturbed pathway is the one identified in the mapping. The second gene maps to three pathways. In the later example, there is only one-third the probability that the pathway identified in the mapping is the one perturbed. The present invention provides a method for calculating the pathway scores, so that more weight is given to a score of a gene or compound that maps to only one pathway than to a score of a gene or compound that maps to multiple pathways. […] Where n=the total number of genes in the pathway; ipath—count=the number of pathways containing a gene; and j=the number of genes in the pathway that are perturbed. Another factor to be considered when weighting a pathway score is the degree of perturbation. Degree of perturbation can be calculated, for example, based on a number of standard deviations from a norm, and included in an equation such as the one shown above, so that not only the number of pathways is taken into account, but also accounts for the amount of gene transcript or compound present as compared to a control. Compounds were also linked to pathways using the KEGG database. KEGG links 676 compounds measured in AF1 to a total of 92 pathways. Of the 676 compounds under consideration, 77 were detected in the AF1 samples. […] The multiple mapping feature of KEGG makes it difficult to pinpoint the correct pathway when trying to link a compound to a specific pathway. […] A pathway score calculation is applied to the compounds to account for both information content (number of pathways a compound maps to) and perturbation level. […]"}, "Arabidopsis thaliana": {"tested_on": "Arabidopsis thaliana", "experiment": "Phenotypic profiling of Arabidopsis sprayed with unknown and commercial herbicides (MOA1)", "type": "in vivo"}, "[3]": {"tested_on": "Saccharomyces cerevisiae wild type strain BY4743", "experiment": "Gene expression analysis of yeast cells treated with antifungal drugs (AF1)", "type": "cell-based", "conditions": "p < 0.05; KEGG pathway mapping of gene expression data", "description": "Saccharomyces cerevisiae wild type strain BY4743 was purchased from American Type Culture Center (ATCC, Manassas, Va.). The yeast strain was grown in YPD or SD media. […] The cultures started from fresh single colonies were grown in 1.0 ml YPD overnight at 30° C. […] The OD600 was adjusted to 1.0 with YPD media, then 2.0 ml of each was inoculated into three 250 ml flasks, each containing 50 ml of SD media. […] The cells were kept growing for another two hours, then collected by centrifugation at 4000 rpm for 5 minutes at 4° C. Pellets were washed once with ice-cold water, then were lyophilized overnight at 4° C. […] RNA quality was determined using the Bioanalyzer 2100 and the RNA 6000 assay (Agilent Technologies, Palo Alto, Calif.) according to manufacturer's instructions. RNA concentrations were determined spectrophotometrically by measuring the absorption at 260 nm in an Ultrospec 2000 (Pharmacia Biotech, Piscataway, N.J.). […] Labeled cRNAs were evaluated using the RNA 6000 assay on the Agilent Bioanalyzer 2100. Labeled cRNA concentrations were determined spectrophotometrically by measuring the absorption at 260 nm in an Ultrospec 2000 (Pharmacia Biotech, Piscataway, N.J.). […] Each feature was determined from an array's associated pattern file and a detection algorithm. […] Data was evaluated after combining results from fluor reversal replicate hybridizations. […]"}}, "data": [{"smiles": "CC[C@@H]([C@H](C)O)n1ncn(-c2ccc(N3CCN(c4ccc(OC[C@@H]5CO[C@@](Cn6cncn6)(c6ccc(F)cc6F)C5)cc4)CC3)cc2)c1=O", "note": "[Posaconazole]", "values": [{"measurement": "Fold Change: aspartic acid", "setting": "[1]; GC", "value": "−0.071"}, {"measurement": "Fold Change: campesterol", "setting": "[1]; GC", "value": 0}, {"measurement": "Fold Change: desmosterol", "setting": "[1]; GC", "value": 0}, {"measurement": "Fold Change: iso citric acid", "setting": "[1]; GC", "value": 0.4}, {"measurement": "Fold Change of NacetylDglucosamine", "setting": "[1]; platform nLC, p-Value 1", "value": 0}, {"measurement": "Fold Change of NacetylDglucosamine", "setting": "[1]; platform pLC, p-Value 1", "value": 0}, {"measurement": "Fold Change of NacetylLglutamate", "setting": "[1]; metabolite NacetylLglutamate, platform pLC, p-Value 1", "value": 0}, {"measurement": "Fold Change of NacetylLornithine", "setting": "[1]; metabolite NacetylLornithine, platform nLC, p-Value 1", "value": 0}, {"measurement": "Fold Change of niacinamide", "setting": "[1]; metabolite niacinamide, platform pLC, p-Value 1", "value": 0}, {"measurement": "Fold Change of nopaline", "setting": "[1]; metabolite nopaline, platform pLC, p-Value 1", "value": 0}, {"measurement": "Fold Change of ornithine3", "setting": "[1]; metabolite ornithine3, platform GC, p-Value 0.965157424", "value": 0.041}, {"measurement": "Fold Change of orotic acid", "setting": "[1]; metabolite orotic acid, platform nLC, p-Value 1", "value": 0}, {"measurement": "Fold Change of phenylpyruvic acid", "setting": "[1]; metabolite phenylpyruvic acid, platform nLC, p-Value 1", "value": 0}, {"measurement": "Fold Change of phosphoenolpyruvate", "setting": "[1]; platform nLC, p-Value 1", "value": 0}, {"measurement": "Fold Change of phosphoenolpyruvate", "setting": "[1]; platform pLC, p-Value 1", "value": 0}, {"measurement": "Fold Change of pinitol", "setting": "[1]; metabolite pinitol, platform nLC, p-Value 1", "value": 0}, {"measurement": "Fold Change of porphobilinogen", "setting": "[1]; metabolite porphobilinogen, platform nLC, p-Value 1", "value": 0}, {"measurement": "Fold Change of progesterone", "setting": "[1]; metabolite progesterone, platform pLC, p-Value 1", "value": 0}, {"measurement": "Fold Change of retinoic acid", "setting": "[1]; metabolite retinoic acid, platform nLC, p-Value 1", "value": 0}, {"measurement": "Fold Change of riboflavin", "setting": "[1]; metabolite riboflavin, platform pLC, p-Value 1", "value": 0}, {"measurement": "Fold Change of salicylic/HObenzoic", "setting": "[1]; metabolite salicylic/HObenzoic, platform nLC, p-Value 1", "value": 0}, {"measurement": "Fold Change of shikimic acid", "setting": "[1]; metabolite shikimic acid, platform nLC, p-Value 1", "value": 0}, {"measurement": "Fold Change of sinapinic acid", "setting": "[1]; metabolite sinapinic acid, platform nLC, p-Value 1", "value": 0}, {"measurement": "Fold Change of sugar-phosphate", "setting": "[1]; metabolite sugar-phosphate, platform pLC, p-Value 1", "value": 0}, {"measurement": "Fold Change of thiamine", "setting": "[1]; metabolite thiamine, platform pLC, p-Value 1", "value": 0}, {"measurement": "Fold Change of thymine", "setting": "[1]; platform nLC, p-Value 1", "value": 0}, {"measurement": "Fold Change of thymine", "setting": "[1]; platform pLC, p-Value 1", "value": 0}, {"measurement": "Fold Change of tryptophan", "setting": "[1]; metabolite tryptophan, platform pLC, p-Value 1", "value": 0}, {"measurement": "Fold Change of uric acid", "setting": "[1]; metabolite uric acid, platform pLC, p-Value 1", "value": 0}, {"measurement": "Fold Change of urocanic acid", "setting": "[1]; platform nLC, p-Value 1", "value": 0}, {"measurement": "Fold Change of urocanic acid", "setting": "[1]; platform pLC, p-Value 1", "value": 0}, {"measurement": "Fold Change of xanthosine(diH2O)", "setting": "[1]; metabolite xanthosine(diH2O), platform pLC, p-Value 1", "value": 0}, {"measurement": "Fold Change of xanthosineDiH2O", "setting": "[1]; metabolite xanthosineDiH2O, platform nLC, p-Value 1", "value": 0}, {"measurement": "Fold Change of zeatin", "setting": "[1]; platform nLC, p-Value 1", "value": 0}, {"measurement": "Fold Change of zeatin", "setting": "[1]; platform pLC, p-Value 1", "value": 0}, {"measurement": "Fold Change: 4-methylcatechol", "setting": "[1]; nLC", "value": 0}, {"measurement": "Fold Change: 5hydroxyLtryptophan", "setting": "[1]; nLC", "value": 0}, {"measurement": "Fold Change: 6-benzylaminopurine", "setting": "[1]; nLC", "value": 0}, {"measurement": "Fold Change: abscisic acid", "setting": "[1]; nLC", "value": 0}, {"measurement": "Fold Change: adenine", "setting": "[1]; nLC", "value": 0}, {"measurement": "Fold Change: anthranilic acid", "setting": "[1]; nLC", "value": 0}, {"measurement": "Fold Change: benzoic acid", "setting": "[1]; nLC", "value": 0}, {"measurement": "Fold Change: catechol", "setting": "[1]; nLC", "value": 0}, {"measurement": "Fold Change: cinnamic acid", "setting": "[1]; nLC", "value": 0}, {"measurement": "Fold Change: citricanoic/itaconi", "setting": "[1]; nLC", "value": 0}, {"measurement": "Fold Change: coumaric acid", "setting": "[1]; nLC", "value": 0}, {"measurement": "Fold Change: cytosine", "setting": "[1]; nLC", "value": 0}, {"measurement": "Fold Change: diaminopimelic acid", "setting": "[1]; nLC", "value": 0}, {"measurement": "Fold Change: dihydrofolic acid", "setting": "[1]; nLC", "value": 0}, {"measurement": "Fold Change: estrone", "setting": "[1]; nLC", "value": 0}, {"measurement": "Fold Change: farnesol", "setting": "[1]; nLC", "value": 0}, {"measurement": "Fold Change: folic acid", "setting": "[1]; nLC", "value": 0}, {"measurement": "Fold Change: gibberellic", "setting": "[1]; nLC", "value": 0}, {"measurement": "Fold Change: guanine", "setting": "[1]; nLC", "value": 0}, {"measurement": "Fold Change: histidine", "setting": "[1]; nLC", "value": 0}, {"measurement": "Fold Change: homogentisic/uric", "setting": "[1]; nLC", "value": 0}, {"measurement": "Fold Change: hydrocortisone", "setting": "[1]; nLC", "value": 0}, {"measurement": "Fold Change: indole3pyruvic acid", "setting": "[1]; nLC", "value": 0}, {"measurement": "Fold Change: jasmonic acid", "setting": "[1]; nLC", "value": 0}, {"measurement": "Fold Change: kinetin", "setting": "[1]; nLC", "value": 0}, {"measurement": "Fold Change: luteolin", "setting": "[1]; nLC", "value": 0}, {"measurement": "Fold Change: malonic acid", "setting": "[1]; nLC", "value": 0}, {"measurement": "Fold Change: methionine", "setting": "[1]; nLC", "value": 0}, {"measurement": "Fold Change: 4-aminobenzoic acid", "setting": "[1]; pLC", "value": 0}, {"measurement": "Fold Change: 4-methylcatechol", "setting": "[1]; pLC", "value": 0}, {"measurement": "Fold Change: 5hydroxyLtryptophan", "setting": "[1]; pLC", "value": 0}, {"measurement": "Fold Change: 6benzylaminopurine", "setting": "[1]; pLC", "value": 0}, {"measurement": "Fold Change: abscisic acid", "setting": "[1]; pLC", "value": 0}, {"measurement": "Fold Change: adenosine", "setting": "[1]; pLC", "value": 0}, {"measurement": "Fold Change: allantoic acid", "setting": "[1]; pLC", "value": 0}, {"measurement": "Fold Change: anthranilic acid", "setting": "[1]; pLC", "value": 0}, {"measurement": "Fold Change: argininosuccinate", "setting": "[1]; pLC", "value": 0}, {"measurement": "Fold Change: biotin", "setting": "[1]; pLC", "value": 0}, {"measurement": "Fold Change: caffeine", "setting": "[1]; pLC", "value": 0}, {"measurement": "Fold Change: citric acid TME", "setting": "[1]; pLC", "value": 0}, {"measurement": "Fold Change: cytidine", "setting": "[1]; pLC", "value": 0}, {"measurement": "Fold Change: diaminopimelic acid", "setting": "[1]; pLC", "value": 0}, {"measurement": "Fold Change: dihydrofolic acid", "setting": "[1]; pLC", "value": 0}, {"measurement": "Fold Change: dipicolinic acid", "setting": "[1]; pLC", "value": 0}, {"measurement": "Fold Change: folic acid", "setting": "[1]; pLC", "value": 0}, {"measurement": "Fold Change: glucosamine", "setting": "[1]; pLC", "value": 0}, {"measurement": "Fold Change: glucosamine6PO4", "setting": "[1]; pLC", "value": 0}, {"measurement": "Fold Change: histidine", "setting": "[1]; pLC", "value": 0}, {"measurement": "Fold Change: hydrocortisone", "setting": "[1]; pLC", "value": 0}, {"measurement": "Fold Change: itaconic acid dimes", "setting": "[1]; pLC", "value": 0}, {"measurement": "Fold Change: kinetin", "setting": "[1]; pLC", "value": 0}, {"measurement": "Fold Change: luteolin", "setting": "[1]; pLC", "value": 0}, {"measurement": "# Reactions (Number Of Pathways Having at Least One Enzyme and One Compound Perturbed)", "setting": "[2]", "value": 3}]}, {"smiles": "Nc1nc[nH]n1", "note": "[Amitrole]", "values": [{"measurement": "herbicidal phenotype in words", "setting": "Arabidopsis thaliana", "value": "chlorosis and not true bleaching"}]}, {"smiles": "CCSC(=O)N(CC(C)C)CC(C)C", "note": "[Butylate]", "values": [{"measurement": "herbicidal phenotype in words", "setting": "Arabidopsis thaliana", "value": "neither showed a strong herbicidal phenotype"}]}, {"smiles": "CC(C)OC(=O)Nc1cccc(Cl)c1", "note": "[Chloropropham]", "values": [{"measurement": "herbicidal phenotype in words", "setting": "Arabidopsis thaliana", "value": "neither showed a strong herbicidal phenotype"}]}, {"smiles": "C[C@@H]1[C@H](O)[C@@H](C)/C=C/C=C/C=C/C=C/C=C/C=C/C=C/[C@H](O[C@@H]2O[C@H](C)[C@@H](O)[C@H](N)[C@@H]2O)C[C@@H]2O[C@](O)(C[C@@H](O)C[C@@H](O)[C@H](O)CC[C@@H](O)C[C@@H](O)CC(=O)O[C@H]1C)C[C@H](O)[C@H]2C(=O)O", "note": "[Amphoteracin B]", "values": [{"measurement": "# Pathways affected by at least one gene", "setting": "[3]", "value": 97}, {"measurement": "# Reactions (Number Of Pathways Having at Least One Enzyme and One Compound Perturbed)", "setting": "[2]", "value": 37}]}]}
